Data from US20210379046A1, “Methods of Treating Diseases Using Kinase Modulators” (Memorial Sloan Kettering Cancer Center, priority 2018, published 2021).
Entries after “also recorded” stand apart in the source; their conditions may differ.

Tests used:
Type in all cases: cell-based, human
[1] = tested on: TPC1 cells; assay: Mass spectrometry of eluted HLA class I presented peptides, TPC1 cells
Procedure: After 72 hrs, cells were harvested, washed, lysed. The lysate was run through an activated Sepharose-CNBr column coupled to the W6/32 antibody to bind HLA-A,B,C from the cell. The peptides bound by those HLAs and captured on the column were then eluted and mass spectrometry was run on those peptides.
Immunopurification affinity columns were prepared as described previously (Bassani-Sternberg et al., 2015, Mol Cell Proteomics 14(3):658-673). In brief, 40 mg of Cyanogen bromide-activated-Sepharose® 4B (Sigma-Aldrich, Cat #C9142) was activated with 1 mM hydrochloric acid (Sigma-Aldrich, Cat #320331) for 30 min. Subsequently, 0.5 mg of W6/32 antibody (BioXCell, BE0079; RRID: AB 1107730) was coupled to sepharose in presence of binding buffer (150 mM sodium chloride, 50 mM sodium bicarbonate, pH 8.3; sodium chloride: Sigma-Aldrich, Cat #S9888, sodium bicarbonate: Sigma-Aldrich, Cat #56014) for at least 2 hours at room temperature. Sepharose was blocked for 1 h with glycine (Sigma-Aldrich, Cat #410225). Columns were equilibrated with PBS for 10 min. […]. Afterwards, cells were lysed in 1 ml 1% CHAPS (Sigma-Aldrich, Cat #C3023) in PBS, supplemented with 1 tablet of protease inhibitors (cOmplete, Cat #11836145001) for 1 hour at 4° C. This lysate was spun down for 1 hour at 20,000 g at 4° C. Supernatant was run over the affinity column through peristaltic pumps at 1 ml/min overnight at 4° C. Affinity columns were washed with PBS for 15 min, run dry, and HLA complexes subsequently eluted three times with 200 μl 1% trifluoracetic acid (TFA, Sigma/Aldrich, Cat #02031). For separation of HLA ligands from their HLA complexes tC18 columns (Sep-Pak tC18 1 cc VacCartridge, 100 mg Sorbent per Cartridge, 37-55 μm Particle Size, Waters, Cat #WAT036820) were prewashed with 80% acetonitrile (ACN, Sigma-Aldrich, Cat #34998) in 0.1% TFA and equilibrated with two washes of 0.1% TFA. Samples were loaded, washed again with 0.1% TFA and eluted in 400 μl 30% ACN in 0.1% TFA. Sample volume was reduced by vacuum centrifugation for mass spectrometry analysis.
Samples were analyzed by a high resolution/high accuracy LC-MS/MS (Lumos Fusion, Thermo Fisher). Peptides were desalted using ZipTips (Sigma Millipore, Cat. #ZTC18S008) according to manufactures instructions and concentrated using vacuum centrifugation prior to being separated using direct loading onto a packedin-emitter C18 column (75 um ID/12 cm, 3 μm particles, Nikkyo Technos Co., Ltd. Japan). The gradient was delivered at 300 nl/min increasing linear from 2% Buffer B (0.1% formic acid in 80% acetonitrile)/98% Buffer A (0.1% formic acid) to 30% Buffer B/70% Buffer A, over 70 minutes. MS and MS/MS were operated at resolutions of 60,000 and 30,000, respectively. Only charge states 1, 2 and 3 were allowed. 1.6 Th was chosen as the isolation window and the collision energy was set at 30%. For MS/MS, the maximum injection time was 100 ms with an AGC of 50,000.
Mass spectrometry data was processed using Byonic software (version 2.7.84, Protein Metrics, PaloAlto, Calif.) through a custom-built computer server equipped with 4 Intel Xeon E5-4620 8-core CPUs operating at 2.2 GHz, and 512 GB physical memory (Exxact Corporation, Freemont, Calif.). Mass accuracy for MS1 was set to 10 ppm and to 20 ppm for MS2, respectively. Digestion specificity was defined as unspecific and only precursors with charges 1, 2, and 3 and up to 2 kDa were allowed. Protein FDR was disabled to allow complete assessment of potential peptide identifications. Oxidization of methionine, N-terminal acetylation, phosphorylation of serine, threonine and tyrosine were set as variable modifications for all samples. All samples were searched against the UniProt Human Reviewed Database (20,349 entries, uniprot.org, downloaded June 2017). […]

[2] = tested on: pSTAT3, pSTAT1 in TPC1 cells; assay: Western blot of STAT phosphorylation in TPC1 cells; settings: TPC1, 10 nM AST487, 24 hrs
Procedure: Cells were seeded in a 60 mm dish or 6 well plates. After the appropriate time point, cells were harvested and lysed and protein was quantified by a Lowry assay (Bio-Rad DC Protein Assay; #5000116). Protein levels were normalized and run on SDS PAGE gels (Bio-Rad). Protein was transferred to a nitrocellulose membrane using semi-dry transfer. Membrane was blocked and incubated with respective antibodies. When needed, secondary antibodies with HRP were incubated for 1 hr. Enhanced chemiluminescent substrate for HRP enzymes was used to image protein levels (Thermo-Fischer; #34095).
Cells were seeded in a 60 mm dish or 6 well plates. After the appropriate time point, cells were harvested, lysed in RIPA buffer (Thermo Instruments) and protein concentration was quantified by a Lowry assay (using the Bio-Rad DC Protein Assay; #5000116 on a Spectramax device from Molecular Devices). Protein loading levels were equalized per lane and separated on SDS gels (Bio-Rad). Protein was transferred to a nitrocellulose membrance using semi-dry transfer (BioRad). Membranes were blocked with Omniblock (American Bio) and incubated with respected antibodies. When needed, secondary antibodies with HRP were incubated for 1 hr. Enhanced chemiluminescent substrate for HRP enzymes was used to image protein levels (Thermo-Fischer; #34095) on a ChemiDoc MP imager with Soft Max Pro software (Biorad).

[3] = tested on: TPC1 cells; assay: Luminex cytokine secretion, TPC1 cells; settings: TPC1, 10 nm AST487
Procedure: Supernatant media were harvested after treatment and analyzed by the Luminex device (Luminex Corporation, Austin, Tex.) for relevant cytokine secretion. […] On the left side of each panel is data after 24 hours. On the right side of each panel is data after 48 hours. […] IFNγ detected in the Luminex assay (50-70 ng/ml) is from the added IFNγ at 100 ng/ml at time zero. Therefore, the increase in HLA after inhibitor treatment in these cell lines is not due to indirect activation of the JAK/STAT pathway via autocrine cytokine signaling. The data points shown in this figure are in pairs for each condition. The data point pairs for each time point are, from left to right: DMSO, Rux, Alec, IFNg, and IFNg+Rux.

For `CCN1CCN(Cc2ccc(NC(=O)Nc3ccc(Oc4cc(NC)ncn4)cc3)cc2C(F)(F)F)CC1` [AST487], the “runs TEIPP peptide was found in (n = 3)” value ([1]; ALFSFVTAL (SEQ ID NO: 11)) was 0, the “runs TEIPP peptide was found in (n = 3)” value ([1]; FLGPWPAAS (SEQ ID NO: 12)) was 1 and the “runs TEIPP peptide was found in (n = 3)” value ([1]; FLSELQYYL (SEQ ID NO: 13)) was 0. The “runs TEIPP peptide was found in (n = 3)” value ([1]; FLYPFLSHL (SEQ ID NO: 14)) was 0, the “runs TEIPP peptide was found in (n = 3)” value ([1]; ILEYLTAEV (SEQ ID NO: 15)) was 0 and the “runs TEIPP peptide was found in (n = 3)” value ([1]; LLALAAGLAV (SEQ ID NO: 16)) was 0. The “runs TEIPP peptide was found in (n = 3)” value ([1]; LLLDVPTAAV (SEQ ID NO: 17)) was 0, the “runs TEIPP peptide was found in (n = 3)” value ([1]; LLLSAEPVPA (SEQ ID NO: 18)) was 0 and the “runs TEIPP peptide was found in (n = 3)” value ([1]; LLWGRQLFA (SEQ ID NO: 19)) was 0. The “runs TEIPP peptide was found in (n = 3)” value ([1]; LSEKLERI (SEQ ID NO: 20)) was 0, the “runs TEIPP peptide was found in (n = 3)” value ([1]; LTLLGTLWGA (SEQ ID NO: 21)) was 0 and the “runs TEIPP peptide was found in (n = 3)” value ([1]; SVLWLGALGL (SEQ ID NO: 22)) was 0. For the same compound, the “runs TEIPP peptide was found in (n = 3)” value ([1]; TLLGASLPA (SEQ ID NO: 23)) was 0, the “new peptides (only peptides found in all three runs counted)” value ([1]; TPC1, 10 nM AST487 or 100 nM cabozantinib) was 458 and the unique ligands presented ([1]; TPC1, 10 nM AST487 or 100 nM cabozantinib, three runs pooled, DMSO 4211) was 5274. For the same compound, the “increase in unique peptides vs DMSO” value ([1]; TPC1, three runs pooled) was 25%, the “unique HLA ligands detected in all 3 runs” value ([1]; TPC1, DMSO 195) was 585 and the “runs TEIPP peptide was found in (n = 3)” value ([1]; VIIKPLVWV (SEQ ID NO: 24)) was 0. For the same compound, the “runs TEIPP peptide was found in (n = 3)” value ([1]; VLAVFIKAV (SEQ ID NO: 25)) was 0, the “runs TEIPP peptide was found in (n = 3)” value ([1]; VLLDHLSLA (SEQ ID NO: 26)) was 0 and the STAT3 phosphorylation [2] was “increased significantly; also recorded: increased phosphorylation of STAT3 at 24 hrs”. The “IFNα, IFNγ, IL4, IL6 and TNFα secretion” value [3] was “had no effect on IFNα, IFNγ, IL4, IL6 or TNFα secretion; also recorded: had no effect on IFNα, IFNγ, IL4, IL6 and TNFα secretion”.
